According to the NIST ThermoML archive (doi:10.1007/s10765-006-0045-2):
Where “and” joins values, the source holds several entries; their conditions need not be identical. Equal values may be shown once.

Assays:
[1] = 101.33 kPa, Crystal; for thermal diffusivity: laser flash method
[2] = molar heat capacity at constant pressure; conditions: 101.33 kPa, Resistive pulse heating

[Hf] [hafnium]
[1]
Conditions | thermal diffusivity
285 K | 1.36e-05 m2/s
293 K | 1.38e-05 m2/s
321 K | 1.32e-05 m2/s
326 K | 1.31e-05 m2/s
375 K | 1.24e-05 m2/s
386 K | 1.22e-05 m2/s
423 K | 1.19e-05 m2/s
433 K | 1.17e-05 m2/s
459 K | 1.15e-05 m2/s
492 K | 1.12e-05 m2/s
521 K | 1.08e-05 m2/s
530 K | 1.08e-05 m2/s
568 K | 1.05e-05 m2/s
579 K | 1.06e-05 m2/s
615 K | 1.02e-05 m2/s
618 K | 1.04e-05 m2/s
664 K | 1e-05 m2/s and 1.02e-05 m2/s
714 K | 9.91e-06 m2/s
715 K | 9.92e-06 m2/s
760 K | 9.79e-06 m2/s
767 K | 9.72e-06 m2/s
817 K | 9.57e-06 m2/s
825 K | 9.67e-06 m2/s
862 K | 9.46e-06 m2/s
874 K | 9.59e-06 m2/s
914 K | 9.36e-06 m2/s
919 K | 9.54e-06 m2/s
962 K | 9.32e-06 m2/s
965 K | 9.54e-06 m2/s
1012 K | 9.29e-06 m2/s
1017 K | 9.54e-06 m2/s
1065 K | 9.26e-06 m2/s and 9.53e-06 m2/s
1113 K | 9.27e-06 m2/s
1118 K | 9.59e-06 m2/s
1162 K | 9.4e-06 m2/s
1174 K | 9.6e-06 m2/s
1215 K | 9.45e-06 m2/s
1222 K | 9.65e-06 m2/s
1262 K | 9.43e-06 m2/s
1277 K | 9.81e-06 m2/s
1314 K | 9.5e-06 m2/s
1332 K | 9.85e-06 m2/s
1362 K | 9.7e-06 m2/s
1370 K | 1e-05 m2/s
1417 K | 9.96e-06 m2/s
1430 K | 1.02e-05 m2/s
1463 K | 1e-05 m2/s
1472 K | 1.05e-05 m2/s

Conditions | mass density | molar heat capacity at constant pressure
[1], 298.1 K, mass over volume | 13222 kg/m3 [middle of 5 runs] | –
[2], 294 K, Crystal 2 | – | 25.61 J/K/mol and 25.77 J/K/mol
[2], 321 K, Crystal 2 | – | 25.86 J/K/mol and 26.01 J/K/mol
[2], 372 K, Crystal 2 | – | 26.33 J/K/mol and 26.38 J/K/mol
[2], 421 K, Crystal 2 | – | 26.77 J/K/mol and 26.7 J/K/mol
[2], 471 K, Crystal 2 | – | 27.22 J/K/mol and 27.1 J/K/mol
[2], 522 K, Crystal 2 | – | 27.67 J/K/mol and 27.49 J/K/mol
[2], 571 K, Crystal 2 | – | 28.09 J/K/mol and 27.88 J/K/mol
[2], 622 K, Crystal 2 | – | 28.52 J/K/mol and 28.29 J/K/mol
[2], 671 K, Crystal 2 | – | 28.93 J/K/mol and 28.67 J/K/mol
[2], 721 K, Crystal 2 | – | 29.36 J/K/mol and 29.04 J/K/mol
[2], 771 K, Crystal 2 | – | 29.77 J/K/mol and 29.47 J/K/mol
[2], 821 K, Crystal 2 | – | 30.17 J/K/mol and 29.95 J/K/mol
[2], 871 K, Crystal 2 | – | 30.56 J/K/mol and 30.4 J/K/mol
[2], 921 K, Crystal 2 | – | 30.95 J/K/mol and 30.84 J/K/mol
[2], 971 K, Crystal 2 | – | 31.34 J/K/mol and 31.25 J/K/mol
[2], 1021 K, Crystal 2 | – | 31.72 J/K/mol and 31.7 J/K/mol
[2], 1071 K, Crystal 2 | – | 32.08 J/K/mol and 32.11 J/K/mol
[2], 1121 K, Crystal 2 | – | 32.45 J/K/mol and 32.49 J/K/mol
[2], 1171 K, Crystal 2 | – | 32.84 J/K/mol and 32.93 J/K/mol
[2], 1221 K, Crystal 2 | – | 33.2 J/K/mol and 33.34 J/K/mol
[2], 1271 K, Crystal 2 | – | 33.54 J/K/mol and 33.73 J/K/mol
[2], 1321 K, Crystal 2 | – | 33.88 J/K/mol and 34.13 J/K/mol
[2], 1371 K, Crystal 2 | – | 34.2 J/K/mol and 34.52 J/K/mol
[2], 1421 K, Crystal 2 | – | 34.52 J/K/mol and 34.91 J/K/mol
[2], 1471 K, Crystal 2 | – | 34.84 J/K/mol and 35.25 J/K/mol
[2], 1521 K, Crystal 2 | – | 35.15 J/K/mol and 35.68 J/K/mol
[2], 1571 K, Crystal 2 | – | 35.45 J/K/mol and 36.06 J/K/mol
[2], 1621 K, Crystal 2 | – | 35.73 J/K/mol and 36.38 J/K/mol
[2], 1671 K, Crystal 2 | – | 36.02 J/K/mol and 36.7 J/K/mol
[2], 1721 K, Crystal 2 | – | 36.31 J/K/mol and 37.13 J/K/mol
[2], 1771 K, Crystal 2 | – | 36.57 J/K/mol and 37.48 J/K/mol
[2], 1821 K, Crystal 2 | – | 36.84 J/K/mol and 37.88 J/K/mol
[2], 1871 K, Crystal 2 | – | 37.09 J/K/mol and 38.29 J/K/mol
[2], 1921 K, Crystal 2 | – | 37.34 J/K/mol and 38.64 J/K/mol
[2], 1971 K, Crystal 2 | – | 37.59 J/K/mol and 40.2 J/K/mol
[2], 1983 K, Crystal 2 | – | 39.18 J/K/mol
[2], 2121 K, Crystal 1 | – | 34.13 J/K/mol and 34.29 J/K/mol
[2], 2171 K, Crystal 1 | – | 34.18 J/K/mol and 34.29 J/K/mol
[2], 2222 K, Crystal 1 | – | 34.23 J/K/mol and 34.29 J/K/mol
[2], 2272 K, Crystal 1 | – | 34.29 J/K/mol
[2], 2321 K, Crystal 1 | – | 34.41 J/K/mol
[2], 2336 K, Crystal 1 | – | 34.5 J/K/mol
